Reference: patent US20150362508A1, “EFFECTOR T CELL RSISTANCE” (BENAROYA RESEARCH INSTITUTE AT VIRGINIA MASON, priority 2013, published 2015)

System: CD4+CD25− T cells (Teff)
Test: CFSE-based polyclonal suppression assay (aTreg:Teff co-culture 1:4, anti-CD3/anti-CD28 beads)
Type: cell-based, human
Conditions: for percent inhibition (Treg-mediated suppression of Teff proliferation): presence vs absence of STAT3 inhibitor, 200 ng/ml for one hour
Experimental: The level of Teff suppression was measured using an in vitro assay in which the CD4^+CD25^− T cells of patients with RRMS were co-cultured with in vitro generated Treg from healthy subjects at a Treg to Teff ratio of 1:4 in the presence of anti-CD3/anti-CD28 coated beads and where proliferation is measured using CFSE.
FIGS. 5A, 5B, and 5C relate to a gating strategy for calculation of percent inhibition in a suppression assay and a cytometric analysis of phosphorylated STAT3 and IL-6Rα surface expression. Referring to FIG. 5A, FACS analysis was performed on day 4 by gating on live cells and excluding the CFSE low population (unstained Treg) to determine the percent of the responder cells that have diluted CFSE. The percent inhibition was determined by comparing the percent of proliferating Teff cells cultured alone to the percent of proliferating Teff cells in co-culture with in vitro generated Treg at a ratio 1:4 (Treg:responder cells).
IL-6 mediated Teff resistance can be reversed through the use of a STAT3 inhibitor (Goodman, W. A., et al., J. Immunol. 186(6), 3336-3345 (2011)). […] Suppression assays were performed in the presence of the STAT3 inhibitor using the same source of control Treg for RRMS and control Teff cells. In FIG. 2D, the percent inhibition for controls (n=3) and RRMS (n=3) subjects in the presence or absence of a STAT3 inhibitor, STATTIC V, was compared using a paired Student t-test.
To determine whether IL-6R mediated signaling could alter suppression in the assay system, Teff were cultured from healthy subjects in the presence or absence of IL-6 in the in vitro co-culture system and assessed percent inhibition on day 4. […] Referring to FIG. 11, CFSE-labeled CD4^+CD25^− T cells were cultured at a ratio of 1:4 (control aTreg:control Teff) either in the absence or presence of 50 ng/ml IL-6 and activated with anti-CD3/anti-CD28 coated beads. FACS analysis was performed to determine percent inhibition on day 4 and data is represented by using a paired analysis (Correlation coefficient (r) 0.8934).
CD4^+CD25^− responder cells were isolated as described above via negative selection using Miltenyi microbeads. Allogeneic CD4^+CD25^− T cells were carboxyfluorescein succinimidyl ester (CFSE)-labelled and cultured at a ratio of 1:4 with aTregs and Dynabeads® (M-450 CD3/CD28 T, Dynal Biotech A.S.A./Life Technologies Corporation, Grand Island, N.Y.) at a ratio of 1:5 (beads:responder cells) as described previously (Schneider, A., and Buckner, J. H., Methods Mol. Biol. 707, 233-241 (2011)). […] Data was acquired using CellQuest™ Pro software (BD Bioscience) and analyzed by FlowJo (Tree Star).

| Molecule | percent inhibition (Treg-mediated suppression of Teff proliferation) (RRMS subjects' Teff (n=3), day 4, p<0.01, FIG. 2D) | percent inhibition (Treg-mediated suppression of Teff proliferation) (control subjects' Teff (n=3), day 4, FIG. 2D) | suppression by Treg (percent inhibition) (control aTreg:control Teff 1:4, absence vs presence of 50 ng/ml IL-6, day 4, p=0.02, FIG. 11) | proliferation of Teff (cultures with Teff alone, healthy subjects, absence vs presence of 50 ng/ml IL-6) |
| --- | --- | --- | --- | --- |
| O=[N+]([O-])c1ccc2c(c1)S(=O)(=O)C=C2 [STATTIC V] | more marked increase in suppression | enhanced suppression | – | – |
| IL-6: recombinant human IL-6 from BD Pharmingen, pro-inflammatory cytokine | – | – | significantly decreased | unaffected |
